Measured values as given in publication PMC6445123 (Scientific Reports, 2019).
Where “and” joins values, the source holds several entries; their conditions need not be identical. Equal values may be shown once.

Experiments:
Casp6-WT-LS-SS = molecular target: T1, Casp6-WT-LS-SS (Homo sapiens, UniProt P55212); experiment: C13 dose-response and global-fit kinetics on Casp6-WT-LS-SS; format: biochemical
T1 construct: obtained by co-expression and purification of LS and SS subunits of WT, L200A or K284A Casp6 from E. coli; His (C); made in house; host or cells: E. coli BL21(DE3)pLysS
T1 sequence (P55212 24-179 limits assumed): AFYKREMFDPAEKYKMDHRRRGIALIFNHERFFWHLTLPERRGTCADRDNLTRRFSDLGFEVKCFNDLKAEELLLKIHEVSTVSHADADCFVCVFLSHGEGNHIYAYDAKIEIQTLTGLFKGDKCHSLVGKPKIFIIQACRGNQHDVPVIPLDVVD
T1 sequence (P55212 194-293 limits assumed): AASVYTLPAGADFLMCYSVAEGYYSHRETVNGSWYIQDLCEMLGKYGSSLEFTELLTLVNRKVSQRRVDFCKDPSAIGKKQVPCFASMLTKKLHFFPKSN
Text: Figure 4 Compounds S10G and C13 inhibit Casp6 through a noncompetitive mode of inhibition. (a) Michaelis-Menten kinetic plots of Casp6 enzymatic activity in presence of 1% DMSO or increasing doses S10G (top) and C13 (bottom). Data points represent mean ± SD of three independent experiments. (b) Lineweaver-Burk plots of Casp6 inhibition with S10G (top) and C13 (bottom). Red circle indicates the point where lines converge. (c) The relationship between the slopes of lines in Lineweaver-Burk plot analyses in panel (b) and inhibitor concentration. (d) Plots of IC50 values for S10G (top) and C13 (bottom) with varying concentrations of Ac-VEID-AFC substrate. Data points represent mean ± SD from three independent experiments for each substrate concentration. (e) Binding model of C13 into CASP6 putative allosteric site, derived from molecular docking. Left: C13 (green sticks) occupies the putative allosteric site (white surface and lines; Ala-mutated residues L200 and K284 shown as purple sticks). Right: predicted interactions with Casp6 allosteric pocket residues (pink balls polar, circled blue or red for basic and acidic, respectively. Green balls = hydrophobic. Dotted-arrow: blue and green for backbone and sidechain hydrogen-bond interactions, respectively. Blue shade = solvent exposed area). […] Data points on the graph represent the mean ± SD, and calculated Ki values represent mean ± standard error (SE) from three independent experiments. […]
Compounds, S10G (2.5 µM, 4.2 µM, 10 µM), and C13 (5 µM, 14 µM, 50 µM), were added to 20 nM active site titrated Casp6 and enzyme activity was measured with eight different Ac-VEID-AFC substrate concentrations (5.0 μM–200 μM) using fluorescence-based Casp6 activity assay as above. The apparent KM and Vmax values were determined through nonlinear regression analysis of Michaelis-Menten plots (v vs. [S]) using GraphPad Prism 5. The inhibition mode was determined from the pattern of converging Lineweaver-Burk plots (1/v vs. 1/[S])[54]. […]

Casp6 = molecular target: T2, Casp6 (Homo sapiens, UniProt P55212, INS179NQTEKLDTNITEVD); experiment: Determination of inhibition mechanism and Ki (Michaelis-Menten, Lineweaver-Burk plots); format: biochemical
T2 construct: generating mainly large subunit with a linker (LS-L), small subunit (SS), and a minor amount of large subunit (LS); His (C); made in house; host or cells: E. coli BL21(DE3)pLysS
T2 sequence (P55212 24-193 limits assumed): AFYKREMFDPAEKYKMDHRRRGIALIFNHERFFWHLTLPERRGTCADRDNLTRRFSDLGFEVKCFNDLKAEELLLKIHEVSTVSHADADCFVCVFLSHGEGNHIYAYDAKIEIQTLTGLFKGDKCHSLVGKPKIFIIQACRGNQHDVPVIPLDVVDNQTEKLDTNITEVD
T2 sequence (P55212 194-293 limits assumed): T1 sequence (P55212 194-293 limits assumed)
Description: The inhibition of Casp6 activity with S10G and C13 was reversible (Fig. S5). To determine mode of inhibition, kinetic analyses were conducted on Casp6 using S10G and C13 (Fig. 4a). […] (Fig. 4b).
Compounds, S10G (2.5 µM, 4.2 µM, 10 µM), and C13 (5 µM, 14 µM, 50 µM), were added to 20 nM active site titrated Casp6 and enzyme activity was measured with eight different Ac-VEID-AFC substrate concentrations (5.0 μM–200 μM) using fluorescence-based Casp6 activity assay as above. The apparent KM and Vmax values were determined through nonlinear regression analysis of Michaelis-Menten plots (v vs. [S]) using GraphPad Prism 5. The inhibition mode was determined from the pattern of converging Lineweaver-Burk plots (1/v vs. 1/[S])[54]. The dissociation constant (Ki) for Casp6-inhibitor complex was determined from the x-axis intercept (which is equal to −Ki) in the plot of Lineweaver-Burk slopes vs. inhibitor concentration. Alternatively, inhibition model and Ki were determined by global fit of kinetic data to the competitive, noncompetitive, noncompetitive (mixed) or uncompetitive inhibition models using respective equations in GraphPad Prism 5.

COC(=O)c1cc(CNC(=O)C2Cc3ccccc3O2)cc(NC(=O)c2ccco2)c1 (centres unmarked) [Compound C13]
inhibition model (best global fit), Casp6-WT-LS-SS (Casp6-WT-LS-SS; Ac-VEID-AFC hydrolysis, increasing substrate and C13 concentrations): noncompetitive (mixed) model inhibition | IC50 (Casp6-WT-LS-SS; copurified LS and SS, read-out: IC50 of C13 for Casp6-WT-LS-SS (Fig. 4g)): 31.8 ± 6.7 µM | Ki (Casp6-WT-LS-SS; global fit to noncompetitive (mixed) model, 0–50 µM C13, mean ± SE): 7.45 µM and 7.5 µM | mode of inhibition (Casp6; Lineweaver-Burk plot pattern): noncompetitive inhibition | Ki (Casp6; from plot of Lineweaver-Burk slopes vs inhibitor concentration, Casp6, Ac-VEID-AFC, read-out: Ki (dissociation constant)): 5.3 µM
